# Test results published in publication PMC9012467 (Science Advances, 2022).
# What was measured:
# PPPDE1 = PPPDE1 (Homo sapiens, UniProt Q9BSY9); test: fluorogenic assay coupled to beta-glucosidase; type: biochemical; settings: 10 μM substrate, 20 μg beta-glucosidase, pH 5.0, 37°C
# PPPDE2 = target: T1, PPPDE2 (Homo sapiens, UniProt Q6ICB0); test: fluorogenic assay coupled to beta-glucosidase; type: biochemical; settings: 10 μM substrate, 20 μg beta-glucosidase, pH 5.0, 37°C
# T1 sequence (Q6ICB0 1-168): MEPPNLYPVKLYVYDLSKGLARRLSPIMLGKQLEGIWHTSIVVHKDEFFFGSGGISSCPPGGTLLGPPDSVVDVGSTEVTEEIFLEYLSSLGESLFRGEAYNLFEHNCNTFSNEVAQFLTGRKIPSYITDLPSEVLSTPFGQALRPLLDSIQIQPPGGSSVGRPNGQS
# PPPDE1, sequence (Q9BSY9 whole entry): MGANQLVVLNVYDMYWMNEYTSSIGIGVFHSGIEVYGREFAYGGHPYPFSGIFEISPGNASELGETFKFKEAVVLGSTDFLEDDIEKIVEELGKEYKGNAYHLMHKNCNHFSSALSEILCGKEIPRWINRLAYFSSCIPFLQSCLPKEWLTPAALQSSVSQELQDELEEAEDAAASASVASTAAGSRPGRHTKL
smiles,measurement,setting,value
"CCCCCCCCCCCCCCCC(=O)SC[C@H]1O[C@@H](Oc2ccc3c(C)cc(=O)oc3c2)[C@H](O)[C@@H](O)[C@@H]1O [MU-6S-palm-βGlc, 4-methylumbelliferyl 6-thio-palmitate-β-D-glucopyranoside]",fluorogenic assay coupled to beta-glucosidase,PPPDE1,both showed high S-depalmitoylation activity by assaying DPP-5 or MU-6S-palm-βGlc
same,fluorogenic assay coupled to beta-glucosidase,PPPDE2,both showed high S-depalmitoylation activity by assaying DPP-5 or MU-6S-palm-βGlc
